The text below walks through data of patent US20150189884A1, “METHODS OF CONTROLLING INSECTS” (Syngenta Participations AG, priority 2012, published 2015).

Where two headings read alike, the source gives them in different places. Where only a bound is given, the exact number is not on record here.

The test system of this test is Anthonomus grandis (Cotton Boll Weevil). The test can be described thus: Anthonomus grandis (Cotton Boll Weevil) test on sprayed cotton plants, mortality assessed. The format is in vivo. The following applies: 120 h, read-out: control (mortality assessed). The procedure: Anthonomus grandis (Cotton Boll Weevil)
Cotton plants are treated (100 mL spray volume) and 10 adult weevils are added to each plant (2 replicates per concentration). 5 days after infestation the mortality is assessed. The following compounds were tested and gave at least 80% control at 50 ppm: B3, B4, C2, C3, C4, E1, E7
Compounds are tested according to the above method.

Where [1] appears, read: 50 ppm, cotton plants treated (100 mL spray volume), 10 adult weevils per plant, 5 days after infestation.

On to `C[C@H](NC(=O)C1CC1)c1ccc(C2(C(F)(F)F)CN=C(c3cc(Cl)c(Cl)c(Cl)c3)C2)cc1` (stereo partly drawn) [Compound B3, N-[(1S)-1-[4-[5-(3,4,5-trichlorophenyl)-3-(trifluoromethyl)-2,4-dihydropyrrol-3-yl]phenyl]ethyl]cyclopropanecarboxamide], for which the mortality at 50 ppm under setting [1] is no less than 80%.
Still for that read-out and setting: to `C[C@H](NC(=O)C1CC1)c1ccc(N2CCC(c3cc(C(F)(F)F)cc(C(F)(F)F)c3)(C(F)(F)F)C2)cc1` (stereo partly drawn) [Compound B4, N-[(1S)-1-[4-[3-[3,5-bis(trifluoromethyl)phenyl]-3-(trifluoromethyl)pyrrolidin-1-yl]phenyl]ethyl]cyclopropanecarboxamide] belongs no less than 80%.
On the same count and under the same terms, to `N#Cc1cc(C2=NCC(c3cc(Cl)c(Cl)c(Cl)c3)(C(F)(F)F)C2)ccc1-n1cncn1` (centres unmarked) [Compound C2, 2-(1,2,4-triazol-1-yl)-5-[3-(3,4,5-trichlorophenyl)-3-(trifluoromethyl)-2,4-dihydropyrrol-5-yl]benzonitrile] belongs no less than 80%.
Regarding `CCC(=O)NC1CCc2cc(C3=NOC(c4cc(Cl)cc(Cl)c4)(C(F)(F)F)C3)ccc21` (centres unmarked) [Compound E1], the mortality at 50 ppm was no less than 80%.
For `N#Cc1cc(C2=NOC(c3cc(Cl)c(F)c(Cl)c3)(C(F)(F)F)C2)ccc1-n1cncn1` (centres unmarked) [Compound C3], the mortality at 50 ppm was no less than 80%.
